According to patent US10597388B2, “Pyridazinone herbicides” (FMC CORPORATION, priority 2014, dated 2020):

Legend:
Assay type in all cases: in vivo
[1] = test system: chickweed (common chickweed, Stellaria media); assay: Test C greenhouse herbicide test, postemergence
Summary of the method: (§1)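 Steps: pot plants in peat-based medium; spray postemergence at 1- to 4-leaf stage; hold in greenhouse 13 to 15 d; score visually against controls from 0 (no effect) to 100 (complete control).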

kochia (Kochia scoparia) = assay: Test C greenhouse herbicide test, postemergence
Summary of the method: as §1

[2] = test system: oat, wild (wild oat, Avena fatua); assay: Test C greenhouse herbicide test, postemergence
Summary of the method: as §1

soybean (Glycine max) = assay: Test C greenhouse herbicide test, pre- and postemergence
From the text: (§2) Seeds of plant species selected from blackgrass (Alopecurus myosuroides), ryegrass, Italian (Italian ryegrass, Lolium multiflorum), wheat (winter wheat, Triticum aestivum), galium (catchweed bedstraw, Galium aparine), corn (Zea mays), large crabgrass, large (large crabgrass, Digitaria sanguinalis), foxtail, giant (giant foxtail, Setaria faberii), johnsongrass (Sorghum halepense), lambsquarters (Chenopodium album), morningglory (Ipomoea coccinea), nutsedge, yellow (yellow nutsedge, Cyperus esculentus), pigweed (Amaranthus retroflexus), ragweed (common ragweed, Ambrosia elatior), soybean (Glycine max), barnyardgrass (Echinochloa crus-galli), oilseed rape (Brassica napus), waterhemp (common waterhemp, Amaranthus rudis), and velvetleaf (Abutilon theophrasti) were planted into a blend of loam soil and sand and treated preemergence with test chemicals formulated in a non-phytotoxic solvent mixture which included a surfactant.
(§3) At the same time, plants selected from these crop and weed species and also chickweed (common chickweed, Stellaria media), kochia (Kochia scoparia), and oat, wild (wild oat, Avena fatua), were planted in pots containing Redi-Earth® planting medium (Scotts Company, 14111 Scottslawn Road, Marysville, Ohio 43041) comprising spaghnum peat moss, vermiculite, wetting agent and starter nutrients and treated with postemergence applications of test chemicals formulated in the same manner. Plants ranged in height from 2 to 18 cm (1- to 4-leaf stage) for postemergence treatments. Treated plants and controls were maintained in a greenhouse for 13 to 15 d, after which time all species were compared to controls and visually evaluated. Plant response ratings, summarized in Table C, are based on a scale of 0 to 100 where 0 is no effect and 100 is complete control. A dash (-) response means no test result.

[3] = test system: nutsedge, yellow (yellow nutsedge, Cyperus esculentus); assay: as above
From the text: as §2, §3

[4] = test system: johnsongrass (Sorghum halepense); assay: as above
From the text: as §2, §3

[5] = test system: ducksalad (Heteranthera limosa); assay: Test B flooded paddy test; settings: 250 g ai/ha, Flood; visual rating on scale of 0 to 100 where 0 is no effect and 100 is complete control; 13 to 15 d after treatment
Summary of the method: (§4)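 Plants grown to the 2-leaf stage. At treatment, pots were flooded to 3 cm above the soil, compound was applied directly to the paddy water, and that depth was held throughout. After 13 to 15 d in the greenhouse, response was rated visually against controls on a 0 (no effect) to 100 (complete control) scale.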

[6] = test system: sedge, umbrella (small-flower umbrella sedge, Cyperus difformis); assay: Test B flooded paddy test; settings: 250 g ai/ha, Flood; visual rating on scale of 0 to 100 where 0 is no effect and 100 is complete control; 13 to 15 d after treatment
Summary of the method: as §4

rice (Oryza sativa) = assay: Test B flooded paddy test; settings: 250 g ai/ha, Flood; visual rating on scale of 0 to 100 where 0 is no effect and 100 is complete control; 13 to 15 d after treatment
Summary of the method: as §4

[7] = test system: barnyardgrass (Echinochloa crus-galli); assay: Test B flooded paddy test; settings: 250 g ai/ha, Flood; visual rating on scale of 0 to 100 where 0 is no effect and 100 is complete control; 13 to 15 d after treatment
Summary of the method: as §4

[8] = test system: galium (catchweed bedstraw, Galium aparine); assay: Test A greenhouse herbicide test, postemergence; settings: for Plant response rating, Galium: 125 g ai/ha, visual rating after approx. 10 d, 0 to 100 scale (0 no effect, 100 complete control); for Galium plant response rating: 500 g ai/ha, 0 to 100 scale, 0 is no effect, 100 is complete control
Summary of the method: (§5)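 Visual injury score, 0 (no effect) to 100 (complete control), versus untreated controls roughly 10 d after postemergence spray; plants at one- to two-leaf stage, 2 to 10 cm tall, in loam soil and sand, kept in greenhouse.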

[9] = test system: blackgrass (Alopecurus myosuroides); assay: Test A greenhouse herbicide test, postemergence; settings: for Plant response rating, Blackgrass: 125 g ai/ha, visual rating after approx. 10 d, 0 to 100 scale (0 no effect, 100 complete control); for Blackgrass plant response rating: 500 g ai/ha, 0 to 100 scale, 0 is no effect, 100 is complete control
Summary of the method: as §5

[10] = Postemergence, 31 g ai/ha, 0 to 100 scale (0 no effect, 100 complete control)
[11] = Postemergence, 125 g ai/ha, scale 0 to 100, 0 is no effect, 100 is complete control
[12] = Postemergence, 250 g ai/ha, scale 0 to 100, 0 no effect, 100 complete control, 13 to 15 d
[13] = postemergence, 62 g ai/ha, scale 0 to 100, 0 no effect, 100 complete control
[14] = Preemergence, 62 g ai/ha, scale 0 to 100, 0 is no effect, 100 is complete control
[15] = Preemergence, 125 g ai/ha, scale 0 to 100, 0 is no effect, 100 is complete control
[16] = Preemergence, 250 g ai/ha, scale 0 to 100, 0 no effect, 100 complete control
[17] = Preemergence, 31 g ai/ha, scale 0 to 100, 0 is no effect, 100 is complete control
[18] = Postemergence, 8 g ai/ha, scale 0 to 100 (0 no effect, 100 complete control)
[19] = Postemergence, 16 g ai/ha, scale 0 to 100 (0 no effect, 100 complete control)
[20] = Preemergence, 16 g ai/ha, scale 0 to 100, 0 is no effect, 100 is complete control

SMILES: Cc1cc2ccccc2c(-c2c(O)c(C)nn(C)c2=O)c1C [Compound 34]
- Chickweed plant response rating [1, 10]: 90
- Plant response rating, Chickweed [1, 11]: 90
- Plant response rating, Chickweed [1, 12]: 95
- Chickweed plant response rating [1, 13]: 90
- Kochia plant response rating (kochia (Kochia scoparia); [10]): 10
- Plant response rating, Kochia (kochia (Kochia scoparia); [11]): 60
- Plant response rating, Kochia (kochia (Kochia scoparia); [12]): 85
- Kochia plant response rating (kochia (Kochia scoparia); [13]): 45
- Oat, Wild plant response rating [2, 10]: 80
- Plant response rating, Oat, Wild [2, 11]: 90
- Plant response rating, Oat, Wild [2, 12]: 90
- Oat, Wild plant response rating [2, 13]: 85
- Soybean plant response rating (soybean (Glycine max); [10]): 5
- Plant response rating, Soybean (soybean (Glycine max); [11]): 15
- Plant response rating, Soybean (soybean (Glycine max); [12]): 5
- Plant response rating, Soybean (soybean (Glycine max); [14]): 10
- Plant response rating, Soybean (soybean (Glycine max); [15]): 0
- Soybean plant response rating (soybean (Glycine max); [16]): 5
- Soybean plant response rating (soybean (Glycine max); [13]): 5
- Nutsedge, Yellow plant response rating [3, 10]: 45
- Plant response rating, Nutsedge, Yellow [3, 11]: 85
- Plant response rating, Nutsedge, Yellow [3, 12]: 85
- Plant response rating, Nutsedge, Yellow [3, 17]: 25
- Plant response rating, Nutsedge, Yellow [3, 14]: 25
- Plant response rating, Nutsedge, Yellow [3, 15]: 35
- Nutsedge, Yellow plant response rating [3, 16]: 65
- Nutsedge, Yellow plant response rating [3, 13]: 60
- Johnsongrass plant response rating [4, 10]: 5
- Plant response rating, Johnsongrass [4, 11]: 5
- Plant response rating, Johnsongrass [4, 12]: 5
- Plant response rating, Johnsongrass [4, 17]: 0
- Plant response rating, Johnsongrass [4, 14]: 0
- Plant response rating, Johnsongrass [4, 15]: 0
- Johnsongrass plant response rating [4, 16]: 20
- Johnsongrass plant response rating [4, 13]: 5
- Plant response rating, Ducksalad [5]: 0
- Plant response rating, Sedge, Umbrella [6]: 0
- Plant response rating, Rice (rice (Oryza sativa)): 0
- Plant response rating, Barnyardgrass [7]: 0
- Plant response rating, Galium [8]: 90
- Galium plant response rating [8]: 100
- Plant response rating, Blackgrass [9]: 80
- Blackgrass plant response rating [9]: 90

SMILES: Cc1nn(C)c(=O)c(-c2c(C)sc3c(C)cc(Cl)cc23)c1O [Compound 35]
- Plant response rating, Chickweed [1, 18]: 90
- Plant response rating, Chickweed [1, 19]: 90
- Chickweed plant response rating [1, 10]: 95
- Chickweed plant response rating [1, 13]: 95
- Plant response rating, Kochia (kochia (Kochia scoparia); [19]): 30
- Kochia plant response rating (kochia (Kochia scoparia); [10]): 30
- Kochia plant response rating (kochia (Kochia scoparia); [13]): 40
- Plant response rating, Oat, Wild [2, 18]: 10
- Plant response rating, Oat, Wild [2, 19]: 30
- Oat, Wild plant response rating [2, 10]: 40
- Oat, Wild plant response rating [2, 13]: 60
- Plant response rating, Soybean (soybean (Glycine max); [18]): 0
- Plant response rating, Soybean (soybean (Glycine max); [19]): 0
- Soybean plant response rating (soybean (Glycine max); [10]): 0
- Plant response rating, Soybean (soybean (Glycine max); [20]): 0
- Plant response rating, Soybean (soybean (Glycine max); [17]): 0
- Plant response rating, Soybean (soybean (Glycine max); [14]): 0
- Soybean plant response rating (soybean (Glycine max); [13]): 5
- Plant response rating, Nutsedge, Yellow [3, 18]: 45
- Plant response rating, Nutsedge, Yellow [3, 19]: 60
- Nutsedge, Yellow plant response rating [3, 10]: 75
- Plant response rating, Nutsedge, Yellow [3, 20]: 20
- Plant response rating, Nutsedge, Yellow [3, 17]: 20
- Plant response rating, Nutsedge, Yellow [3, 14]: 40
- Nutsedge, Yellow plant response rating [3, 13]: 85
- Plant response rating, Johnsongrass [4, 18]: 10
- Plant response rating, Johnsongrass [4, 19]: 15
- Johnsongrass plant response rating [4, 10]: 20
- Plant response rating, Johnsongrass [4, 20]: 0
- Plant response rating, Johnsongrass [4, 17]: 10
- Plant response rating, Johnsongrass [4, 14]: 10
- Johnsongrass plant response rating [4, 13]: 20
- Plant response rating, Ducksalad [5]: 75
- Plant response rating, Sedge, Umbrella [6]: 65
- Plant response rating, Rice (rice (Oryza sativa)): 0
- Plant response rating, Barnyardgrass [7]: 0
- Plant response rating, Galium [8]: 100
- Galium plant response rating [8]: 100
- Plant response rating, Blackgrass [9]: 70
- Blackgrass plant response rating [9]: 80
